PMC8991199, “Promiscuity mapping of the S100 protein family using a high-throughput holdup assay” (Scientific Reports, 2022)

Experiments:
Type in all cases: binding
S100A10 = S100A10 (Homo sapiens, UniProt P60903); experiment: direct fluorescence polarization (FP), S100A10; conditions: S100A10, 50 nM labeled foldamer, 20 mM HEPES pH 7.5, 150 mM NaCl, 1 mM CaCl2, 0.5 mM TCEP, 0.01% Tween20, quadratic fit, mean ± SEM, three technical repeats, threshold 1 mM
From the text: (§1) HTP (and also low-throughput) measurements generally need to be validated by an orthogonal approach to eliminate experimental artifacts. […] In this assay, the association of the fluorescently labeled foldamer and the S100 protein of interest is monitored, through the change in polarization of the emitted light by the fluorophore upon the binding event. In direct FP, the presence of the fluorophore might change the binding affinity of some foldamers. […] Nevertheless, we assumed that the fluorophore would affect all foldamers that target the same binding site to the same degree, because the foldamer scaffold is rigid.
(§2) Briefly, S100 proteins were cloned into a modified pET15b vector with a TEV protease cleavable N-terminal His6-tag and expressed in Escherichia coli BL21 (DE3) cells, followed by Ni^2+-affinity chromatography. For HU assay, S100 proteins were further purified by either hydrophobic interaction chromatography or ion exchange chromatography without the cleavage of the N-terminal His6-tag applying standard conditions. For direct FP measurements, the N-terminal His6-tag was cleaved, and the S100 proteins were purified by hydrophobic interaction chromatography, ion exchange chromatography or size exclusion chromatography. The quality of the recombinant proteins was checked by SDS-PAGE analysis in all cases. The concentration of the recombinant S100 proteins was determined by UV spectrophotometry using the absorbance of Tyr and Trp residues.
(§3) In direct fluorescence polarization assays, S100 proteins were diluted in a buffer containing 50 nM labeled foldamer, 20 mM HEPES pH 7.5, 150 mM NaCl, 1 mM CaCl2, 0.5 mM TCEP and 0.01% Tween20. The dilution series (50 µl) were divided into three technical repeats and transferred (15 µl) to a 384-well microplate. In competitive fluorescence polarization assays, the buffer applied in direct measurements was supplemented with the S100 protein of interest to reach a saturation of 60–80%. This mixture was titrated with the competitor (i.e. the unlabeled peptide). Fluorescence polarization was measured in 8 different S100 concentrations (one of which contained no S100 protein) on a Synergy H4 plate reader using 485 ± 20 nm and 528 ± 20 nm band-pass filters for excitation and emission, respectively. The Kd values were obtained by fitting the data from the FP measurements with the python-based ProFit software using quadratic and competitive binding equation for direct and competitive FP, respectively. The detection threshold was based on two parameters. First, we rejected all fitted dissociation constants above 1 mM.

S100A2 = S100A2 (Homo sapiens, UniProt P29034); experiment: direct fluorescence polarization (FP), S100A2; conditions: S100A2, 50 nM labeled foldamer, 20 mM HEPES pH 7.5, 150 mM NaCl, 1 mM CaCl2, 0.5 mM TCEP, 0.01% Tween20, quadratic fit, mean ± SEM, three technical repeats, threshold 1 mM
S100A2, sequence (P29034 whole entry): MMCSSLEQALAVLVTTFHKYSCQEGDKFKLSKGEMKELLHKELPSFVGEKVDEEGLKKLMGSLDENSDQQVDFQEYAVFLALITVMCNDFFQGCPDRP
From the text: as §1, §2, §3

S100A14 = biological target: T1, S100A14 (Homo sapiens, UniProt Q9HCY8); experiment: direct fluorescence polarization (FP), S100A14; conditions: S100A14, 50 nM labeled foldamer, 20 mM HEPES pH 7.5, 150 mM NaCl, 1 mM CaCl2, 0.5 mM TCEP, 0.01% Tween20, quadratic fit, mean ± SEM, three technical repeats, threshold 1 mM
T1 sequence (Q9HCY8 1-104): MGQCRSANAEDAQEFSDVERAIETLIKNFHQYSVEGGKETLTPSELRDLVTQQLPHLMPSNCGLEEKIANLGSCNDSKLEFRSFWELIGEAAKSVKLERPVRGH
Method: (§4) HTP (and also low-throughput) measurements generally need to be validated by an orthogonal approach to eliminate experimental artifacts. […] This way, we chose WL, IF, WW, YF, IL, VL, TW, RF, RR, TI, TM, and after resynthesizing with a fluorescent label at the C-terminus (Figs. S15–S26, Table S1), the S100ome was tested against the labeled foldamers by direct fluorescence polarization (FP) (Fig. 3A). In this assay, the association of the fluorescently labeled foldamer and the S100 protein of interest is monitored, through the change in polarization of the emitted light by the fluorophore upon the binding event. In direct FP, the presence of the fluorophore might change the binding affinity of some foldamers. […] Nevertheless, we assumed that the fluorophore would affect all foldamers that target the same binding site to the same degree, because the foldamer scaffold is rigid. Defining the threshold of detection at the dissociation constant of 1 mM, we identified 87 interactions between the selected foldamer fragments and the S100ome out of 220 possible interactions (Table 1, Fig. S4-14).
as §2, §3

S100G = biological target: T2, S100G (Homo sapiens, UniProt P29377); experiment: direct fluorescence polarization (FP), S100G; conditions: 50 nM labeled foldamer, 20 mM HEPES pH 7.5, 150 mM NaCl, 1 mM CaCl2, 0.5 mM TCEP, 0.01% Tween20, quadratic fit, mean ± SEM, three technical repeats, threshold 1 mM
T2 sequence (P29377 2-79): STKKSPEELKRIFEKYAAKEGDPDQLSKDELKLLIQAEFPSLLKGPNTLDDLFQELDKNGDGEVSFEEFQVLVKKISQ
Method: as §4, §2, §3

S100A8 = biological target: T3, S100A8 (Homo sapiens, UniProt P05109); experiment: direct fluorescence polarization (FP), S100A8; conditions: S100A8, 50 nM labeled foldamer, 20 mM HEPES pH 7.5, 150 mM NaCl, 1 mM CaCl2, 0.5 mM TCEP, 0.01% Tween20, quadratic fit, mean ± SEM, three technical repeats, threshold 1 mM
T3 sequence (P05109 1-93): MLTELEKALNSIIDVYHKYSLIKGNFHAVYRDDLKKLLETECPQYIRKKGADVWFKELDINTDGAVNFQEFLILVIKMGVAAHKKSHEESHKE
Method: as §4, §2, §3

S100Z = biological target: T4, S100Z (Homo sapiens, UniProt Q8WXG8); experiment: direct fluorescence polarization (FP), S100Z; conditions: 50 nM labeled foldamer, 20 mM HEPES pH 7.5, 150 mM NaCl, 1 mM CaCl2, 0.5 mM TCEP, 0.01% Tween20, quadratic fit, mean ± SEM, three technical repeats, threshold 1 mM
T4 sequence (Q8WXG8 1-99): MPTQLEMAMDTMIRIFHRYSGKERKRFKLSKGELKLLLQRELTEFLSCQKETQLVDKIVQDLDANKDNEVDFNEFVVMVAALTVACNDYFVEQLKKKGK
From the text: as §1, §2, §3

S100A4 = S100A4 (Homo sapiens, UniProt P26447); experiment: direct fluorescence polarization (FP), S100A4; conditions: S100A4, 50 nM labeled foldamer, 20 mM HEPES pH 7.5, 150 mM NaCl, 1 mM CaCl2, 0.5 mM TCEP, 0.01% Tween20, quadratic fit, mean ± SEM, three technical repeats, threshold 1 mM
S100A4, sequence (P26447 whole entry): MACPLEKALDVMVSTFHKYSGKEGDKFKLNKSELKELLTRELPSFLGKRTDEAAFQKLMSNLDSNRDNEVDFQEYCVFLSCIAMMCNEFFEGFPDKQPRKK
From the text: as §1, §2, §3

S100B = biological target: T5, S100B (Homo sapiens, UniProt P04271); experiment: direct fluorescence polarization (FP), S100B; conditions: 50 nM labeled foldamer, 20 mM HEPES pH 7.5, 150 mM NaCl, 1 mM CaCl2, 0.5 mM TCEP, 0.01% Tween20, quadratic fit, mean ± SEM, three technical repeats, threshold 1 mM
T5 sequence (P04271 1-92): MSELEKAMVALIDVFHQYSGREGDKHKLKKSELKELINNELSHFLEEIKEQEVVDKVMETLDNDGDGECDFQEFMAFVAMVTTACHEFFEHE
Method: as §4, §2, §3

S100A10, sequence (P60903 whole entry): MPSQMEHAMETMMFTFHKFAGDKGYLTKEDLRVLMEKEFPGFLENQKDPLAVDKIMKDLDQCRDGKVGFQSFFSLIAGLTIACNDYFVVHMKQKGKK

SMILES	Kd (S100A10)	Kd (S100A2)	Kd (S100A14)	Kd (S100G)	Kd (S100A8)	Kd (S100Z)	Kd (S100A4)	Kd (S100B)
CC[C@H](C)[C@@H](CC(=O)N[C@H]1CCCC[C@@H]1C(=O)N[C@H]1CCCC[C@@H]1C(=O)N[C@H](CC(=O)N[C@H]1CCCC[C@@H]1C(=O)NCC(=O)N[C@@H](CCCCNC(=O)c1ccc2c(c1)C1(OC2=O)c2ccc(O)cc2Oc2cc(O)ccc21)C(N)=O)Cc1ccccc1)NC(=O)[C@H]1CCCC[C@@H]1N [fIF]	97 ± 2.5 µM	38 ± 1.5 µM	> 1000 µM	> 1000 µM	750 ± 46 µM	480 ± 31 µM	93 ± 2.4 µM	140 ± 7.9 µM
CC[C@H](C)[C@@H](CC(=O)N[C@H]1CCCC[C@@H]1C(=O)N[C@H]1CCCC[C@@H]1C(=O)N[C@H](CC(=O)N[C@H]1CCCC[C@@H]1C(=O)NCC(=O)N[C@@H](CCCCNC(=O)c1ccc2c(c1)C1(OC2=O)c2ccc(O)cc2Oc2cc(O)ccc21)C(N)=O)CC(C)C)NC(=O)[C@H]1CCCC[C@@H]1N [fIL]	72 ± 1.6 µM	78 ± 8.7 µM	> 1000 µM	> 1000 µM	> 1000 µM	> 1000 µM	150 ± 4.8 µM	63 ± 4.4 µM
N=C(N)NCCC[C@@H](CC(=O)N[C@H]1CCCC[C@@H]1C(=O)N[C@H]1CCCC[C@@H]1C(=O)N[C@H](CC(=O)N[C@H]1CCCC[C@@H]1C(=O)NCC(=O)N[C@@H](CCCCNC(=O)c1ccc2c(c1)C1(OC2=O)c2ccc(O)cc2Oc2cc(O)ccc21)C(N)=O)Cc1ccccc1)NC(=O)[C@H]1CCCC[C@@H]1N [fRF]	320 ± 19 µM	340 ± 21 µM	> 1000 µM	> 1000 µM	> 1000 µM	890 ± 120 µM	460 ± 23 µM	230 ± 5.9 µM
N=C(N)NCCC[C@@H](CC(=O)N[C@H]1CCCC[C@@H]1C(=O)NCC(=O)N[C@@H](CCCCNC(=O)c1ccc2c(c1)C1(OC2=O)c2ccc(O)cc2Oc2cc(O)ccc21)C(N)=O)NC(=O)[C@H]1CCCC[C@@H]1NC(=O)[C@H]1CCCC[C@@H]1NC(=O)C[C@H](CCCNC(=N)N)NC(=O)[C@H]1CCCC[C@@H]1N [fRR]	> 1000 µM	61 ± 5.5 µM	> 1000 µM	> 1000 µM	> 1000 µM	> 1000 µM	> 1000 µM	210 ± 26 µM
CC[C@H](C)[C@@H](CC(=O)N[C@H]1CCCC[C@@H]1C(=O)NCC(=O)N[C@@H](CCCCNC(=O)c1ccc2c(c1)C1(OC2=O)c2ccc(O)cc2Oc2cc(O)ccc21)C(N)=O)NC(=O)[C@H]1CCCC[C@@H]1NC(=O)[C@H]1CCCC[C@@H]1NC(=O)C[C@@H](NC(=O)[C@H]1CCCC[C@@H]1N)[C@@H](C)O [fTI]	> 1000 µM	> 1000 µM	> 1000 µM	> 1000 µM	> 1000 µM	> 1000 µM	> 1000 µM	> 1000 µM
CSCC[C@@H](CC(=O)N[C@H]1CCCC[C@@H]1C(=O)NCC(=O)N[C@@H](CCCCNC(=O)c1ccc2c(c1)C1(OC2=O)c2ccc(O)cc2Oc2cc(O)ccc21)C(N)=O)NC(=O)[C@H]1CCCC[C@@H]1NC(=O)[C@H]1CCCC[C@@H]1NC(=O)C[C@@H](NC(=O)[C@H]1CCCC[C@@H]1N)[C@@H](C)O [fTM]	> 1000 µM	> 1000 µM	> 1000 µM	> 1000 µM	> 1000 µM	> 1000 µM	> 1000 µM	> 1000 µM
C[C@@H](O)[C@@H](CC(=O)N[C@H]1CCCC[C@@H]1C(=O)N[C@H]1CCCC[C@@H]1C(=O)N[C@H](CC(=O)N[C@H]1CCCC[C@@H]1C(=O)NCC(=O)N[C@@H](CCCCNC(=O)c1ccc2c(c1)C1(OC2=O)c2ccc(O)cc2Oc2cc(O)ccc21)C(N)=O)Cc1c[nH]c2ccccc12)NC(=O)[C@H]1CCCC[C@@H]1N [fTW]			> 1000 µM	> 1000 µM	770 ± 180 µM		180 ± 46 µM	280 ± 17 µM
CC(C)C[C@@H](CC(=O)N[C@H]1CCCC[C@@H]1C(=O)NCC(=O)N[C@@H](CCCCNC(=O)c1ccc2c(c1)C1(OC2=O)c2ccc(O)cc2Oc2cc(O)ccc21)C(N)=O)NC(=O)[C@H]1CCCC[C@@H]1NC(=O)[C@H]1CCCC[C@@H]1NC(=O)C[C@@H](NC(=O)[C@H]1CCCC[C@@H]1N)C(C)C [fVL]	110 ± 5.5 µM	210 ± 110 µM	> 1000 µM	> 1000 µM	> 1000 µM	> 1000 µM	210 ± 8.7 µM	50 ± 6.4 µM
CC(C)C[C@@H](CC(=O)N[C@H]1CCCC[C@@H]1C(=O)NCC(=O)N[C@@H](CCCCNC(=O)c1ccc2c(c1)C1(OC2=O)c2ccc(O)cc2Oc2cc(O)ccc21)C(N)=O)NC(=O)[C@H]1CCCC[C@@H]1NC(=O)[C@H]1CCCC[C@@H]1NC(=O)C[C@H](Cc1c[nH]c2ccccc12)NC(=O)[C@H]1CCCC[C@@H]1N [fWL]	23 ± 0.7 µM	11 ± 0.39 µM	> 1000 µM	> 1000 µM	74 ± 3.5 µM	> 1000 µM	46 ± 1.6 µM	11 ± 0.81 µM
NC(=O)[C@H](CCCCNC(=O)c1ccc2c(c1)C1(OC2=O)c2ccc(O)cc2Oc2cc(O)ccc21)NC(=O)CNC(=O)[C@H]1CCCC[C@@H]1NC(=O)C[C@H](Cc1c[nH]c2ccccc12)NC(=O)[C@H]1CCCC[C@@H]1NC(=O)[C@H]1CCCC[C@@H]1NC(=O)C[C@H](Cc1c[nH]c2ccccc12)NC(=O)[C@H]1CCCC[C@@H]1N [fWW]	150 ± 5.2 µM	65 ± 1.2 µM	> 1000 µM	> 1000 µM	> 1000 µM	> 1000 µM		> 1000 µM
NC(=O)[C@H](CCCCNC(=O)c1ccc2c(c1)C1(OC2=O)c2ccc(O)cc2Oc2cc(O)ccc21)NC(=O)CNC(=O)[C@H]1CCCC[C@@H]1NC(=O)C[C@H](Cc1ccccc1)NC(=O)[C@H]1CCCC[C@@H]1NC(=O)[C@H]1CCCC[C@@H]1NC(=O)C[C@H](Cc1ccc(O)cc1)NC(=O)[C@H]1CCCC[C@@H]1N [fYF]	70 ± 3.5 µM	26 ± 2.1 µM	> 1000 µM	> 1000 µM	180 ± 42 µM	> 1000 µM	113 ± 5.2 µM	28 ± 1.7 µM
